Results published in patent US20090202573A1, “POLYMERIC CONJUGATES CONTAINING POSITIVELY-CHARGED MOIETIES” (ENZON PHARMACEUTICALS, INC., priority 2006, published 2009).
d = 2'-deoxy (DNA); r = 2'-OH (RNA)

Legend:
[1] = system: Survivin mRNA; assay: Survivin mRNA downregulation in A549 cell model, RT-PCR (Examples 67, 69, 70, 71, 71 bis); format: cell-based, human
Experimental: This study was conducted to determine the effects of the positively charged polymers on Survivin mRNA expression. A549 human lung cells were transfected with each of compounds 33b-I-R4, 33b-I-R5 and 33a-I-R3 in concentrations of 1000 nM, 200 nM, 40 nM, 8 nM and 1.6 nM. […] Compound 33a-I-R3 ([RGD-TATC-S—S]7-^20K8arm PEG-SS-antisense Survivin LNA) includes the TAT peptide and antisense Survivin LNA. The Survivin mRNA expression in the A549 cells treated with each of the compounds was measured by RT-PCR one day after the treatment.
A549 human lung cancer cells were transfected with each of compound 33a-I-R2 and the naive antisense Survivin LNA. Compound 33a-I-R2 ([(Arg)9C—S—S]7-^20K8arm PEG-S—S-antisense Survivin LNA) includes seven polymer arm terminals connected to C(Arg)9 and one arm terminal connected to the antisense Survivin LNA via the intracellular releasable disulfide bond. The naive oligonucleotides (antisense Survivin LNA) were also transfected with the transfection agent lipofectamine.
A549 cells were transfected with each of compound 59 and the antisense Survivin LNA dimer. The dimer of the antisense Survivin LNA modified with a C6—SH tail (antisense Survivin LNA-C6—S—S—C6-antisense Survivin LNA) was also transfected with the transfection agent. Compound 59 contains a hydrazone-based releasable linker.
This study was conducted to determine whether the positively charged polymers containing a targeting agent is as effective as the positively charged polymers without a targeting agent and thus the polymers containing the targeting agent can be utilized for targeted delivery. A549 cells were transfected with each of compounds 33a-I-R1 (TATC-S—S)7-^20K8arm PEG-S—S-antisense Survivin LNA) and 33a-I-R3 ([RGD-TATC-S—S]7-^20K8arm PEG-S—S-antisense Survivin LNA). In compounds 33a-I-R1 and 33a-I-R3, seven polymer arm terminals are connected to C-TAT and C-TAT-RGD, respectively. The cells were also transfected with the antisense Survivin LNA modified with a SH—C6 tail with or without the transfection agent. […] This feature of the positively charged polymers is beneficial to target agent directed delivery of oligonucleotide therapeutics.
A549 human lung cancer cells were transfected with each of compound 33a-I-R1 (TATC-S—S)7-^20K8arm PEG-S—S-antisense Survivin LNA), compound 33a-II-R1 (TATC-S—S)7-^20K8arm PEG-S—S-scrambled Survivin LNA) and the native antisense Survivin LNA. Compound […] corresponds to compound […] except in that it includes mismatching nucleotides within the antisense Survivin LNA (scrambled Survivin LNA: 5′-s^mCsGs^mCsAsgsaststsasgsasasAs^mCs^mCst-3′). The naive antisense Survivin LNA was also transfected with the transfection agent.

[2] = system: Survivin mRNA; assay: Survivin mRNA downregulation in DU145 cell model (prostate cancer) (Example 68); format: cell-based; conditions: Example 68: DU145 cells, FIG. 19
Text: DU145 cells were transfected with the same compounds used in Example 67.

[3] = system: BCL2 mRNA; assay: BCL2 mRNA downregulation, RT-PCR, A431 cells (Example 66); format: cell-based, human; conditions: without transfection agent, FIG. 17
Experimental: This study was conducted to determine whether the oligonucleotides uptaken by cancer cells downregulate specific gene expression involved in cancer. A431 cells were transfected with native oligonucleotides and compound 23a-I-R1 without transfection agent. The positively charged polymer conjugate contains TAT and BCL2 siRNA.

[4] = Example 71: A549 cells, polymers with or without targeting agent (RGD), FIG. 22

## [(Arg)9C—S—S]7-^20K8arm PEG-S—S-antisense Survivin LNA [Compound 33a-I-R2]
[1]; Example 69: A549 cells, without the transfection agent, FIG. 20
  Survivin mRNA expression: significantly downregulated Survivin mRNA expression

## (TATC-S—S)7-^20K8arm PEG-S—S-antisense Survivin LNA [Compound 33a-I-R1]
[1]; [4]
  Survivin mRNA expression: downregulated Survivin mRNA expression
[1]; second Example 71: A549 cells, antisense versus scrambled (mismatching) Survivin LNA, FIG. 23
  Specific inhibition of Survivin mRNA expression: significantly inhibited Survivin mRNA expression
[2]
  Survivin mRNA expression: similarly observed

## native Bcl2 siRNA: unconjugated antisense Bcl2 siRNA (SEQ ID NOs: 4 and 5) (chain 1 GCAUGCGGCCUCUGUUUGATT; chain 2 UCAAACAGAGGCCGCAUGCTT; sugars from the 5' end r19 d2, backbone not given here)
[3]
  BCL2 mRNA expression: downregulated BCL2 mRNA expression dose-dependently

## [RGD-TATC-S—S]7-^20K8arm PEG-SS-antisense Survivin LNA [Compound 33a-I-R3]
[1]; Example 67: A549 cells, 1000 nM to 1.6 nM, RT-PCR one day after treatment, without transfection agent, FIG. 18
  Survivin mRNA expression: significantly downregulated Survivin mRNA expression
[1]; Example 67: A549 cells, 1000, 200, 40, 8 and 1.6 nM, FIG. 18
  dose dependence of Survivin mRNA downregulation: dose-dependent
[1]; [4]
  Survivin mRNA expression: downregulated Survivin mRNA expression
[2]
  Survivin mRNA expression: significant down-regulation of Survivin mRNA expression
